Results reported in patent US20150297741A1, “BIO-ORTHOGONAL DRUG ACTIVATION” (TAGWORKS PHARMACEUTICALS B.V., priority 2012, published 2015).
Read-outs that look alike come from different tables or passages of the source.

Key:
[1] = Tetrazine-induced doxorubicin release from Axial-TCO-1-Doxorubicin in PBS/MeCN (LCMS)
Procedure: PBS/MeCN (1 mL, 3/1), preheated at 37° C. and TCO-2-doxorubicin (10 μL of a 2.5 mM solution in DMSO, 1 eq.) were added to a preheated injection vial. Tetrazine (10 μL of a 25 mM solution in DMSO, 10 eq.) was added and the vial was vortexed. After incubation for 1 hour at 37° C., the vial was placed in LC-MS autosampler at 10° C. LC-MS analysis was performed using a 5% to 100% H2O/MeCN gradient over 11 minutes with a C18 reverse-phase column at 35° C. A control sample containing only TCO-2-doxorubicin (1 eq), as well as a sample containing only doxorubicin (1 eq.), was analyzed under the same conditions. All tetrazine containing samples were measured twice and the doxorubicin control sample was run after every three other samples during an overnight program. The peak area of released dox was divided by the peak area of TCO-2-doxorubicin or doxorubicin reference signals and multiplied by 100 to calculate the percentage of release. The calculated percentage of release was corrected when it was observed that the TCO-2-doxorubicin was not fully converted to inv-DA adduct(s). This was done by quantification of remaining dox-TCO, but full conversion was almost always observed. Peak areas (used for doxorubin quantification) were determined at A=470-500 nm where characteristic doxorubicin absorption takes place and peak integration was done by hand.
(§1) In a similar fashion as Example 3, the release of doxorubicin from TCO-1-doxorubucin as induced by tetrazines 1,8,9 in PBS/ACN and in serum was measured.

[2] = Tetrazine-induced doxorubicin release from Axial-TCO-1-Doxorubicin in serum (HPLC-MS/PDA); design: species or system mouse; details: 37° C.
Procedure: as §1
Serum experiments were conducted as follows:
TCO-1-doxorubucin (6.25×10^−8 mol) was dissolved in DMSO (0.050 mL), and PBS (0.475 mL) was added slowly in aliquots of 0.010 mL, followed by mouse serum (0.475 mL). […] Subsequently, cold MeCN (0.200 mL) was added, followed by centrifugation at 13400 rpm for 5 min. The supernatant was used for further analysis by HPLCMS/PDA analysis to determine the release of doxorubicin.

[3] = Stability of a TCO compound under various conditions (HPLC-MS/PDA and/or GC-MS); type: physicochemical; details: for half-life at 2.3 mM: read-out: Stability of TCO: t1/2
Procedure: The TCO stock solution (10 μL 25 mM; 2.5*10^−7 mol) was added to a solution of the specific condition (100 μL). The mixture was stirred at the specific condition for a certain amount of time, and then the fate of the TCO compound was monitored by HPLC-MS/PDA analysis and/or GC-MS analysis, and an estimation of its stability was made.
(§2) Conditions: A) in acetonitrile with 5 equivalents of pyridine per TCO at 20° C.
B) in acetonitrile with 5 equivalents of DIPEA per TCO at 20° C. C) in acetonitrile with 5 equivalents of piperidine per TCO at 20° C. D) in acetonitrile with 5 equivalents of n-butylamine per TCO at 20° C. E) in acetonitrile with 5 equivalents of 2-mercaptoethanol per TCO at 20° C. F) in tetrahydrofuran with 5 equivalents of triphenylphosphine per TCO at 20° C. G) in acetonitrile with 5 equivalents of DCC per TCO at 20° C. H) in acetonitrile with 5 equivalents of PyBOP per TCO at 20° C. […] J) in chloroform at 20° C. […] L) in chloroform with 1 v % of trifluoroacetic acid at 20° C. M) in chloroform with 10 v % of trifluoroacetic acid at 20° C. N) in chloroform with 33 v % of trifluoroacetic acid at 20° C. Z) in 25% acetonitrile in water at 20° C.

[4] = Tetrazine-induced deprotection (TCO activation) under various conditions
Procedure: In addition, the tetrazine-induced TCO activation was studied under the same conditions. […] In addition to amines, also hydroxy and carboxylic acids form stable conjugates with TCO and can subsequently be cleaved in a range of conditions.
The TCO stock solution (10 μL 25 mM in acetonitrile; 2.5*10^−7 mol) was added to a solution of the specific condition (100 μL). A solution of 3,6-dimethyl-1,2,4,5-tetrazine (8, 20 uL 25 mM in acetonitrile; 5.0*10^−7 mol) was added, and the mixture was stirred at the specific condition for a certain amount of time. The reaction was monitored by HPLC-MS/PDA analysis and/or GC-MS analysis, and the percentage of deprotection was estimated.
as §2
B) in acetonitrile with 5 equivalents of DIPEA per TCO at 20° C. C) in acetonitrile with 5 equivalents of piperidine per TCO at 20° C. D) in acetonitrile with 5 equivalents of n-butylamine per TCO at 20° C. E) in acetonitrile with 5 equivalents of 2-mercaptoethanol per TCO at 20° C. F) in tetrahydrofuran with 5 equivalents of triphenylphosphine per TCO at 20° C. G) in acetonitrile with 5 equivalents of DCC per TCO at 20° C. H) in acetonitrile with 5 equivalents of PyBOP per TCO at 20° C. I) in acetonitrile with 1 v % of formic acid at 20° C. J) in chloroform at 20° C. K) in chloroform with 1 v % of formic acid at 20° C. L) in chloroform with 1 v % of trifluoroacetic acid at 20° C. M) in chloroform with 10 v % of trifluoroacetic acid at 20° C. N) in chloroform with 33 v % of trifluoroacetic acid at 20° C. Z) in 25% acetonitrile in water at 20° C.

[5] = with 5 eq. of DIPEA in MeCN for 16 h, 20° C.
[6] = with 5 eq. of HCOOH in MeCN for 16 h, 20° C.
[7] = with 5 eq. of PyBOP in MeCN for 16 h, 20° C.
[8] = with 5 eq. of pyridine in MeCN for 16 h, 20° C.
[9] = 0.1M HCOOH buffer, pH = 2.0 for 2 day, 20° C.
[10] = 0.1M NH3 buffer, pH = 11 for 5 day, 20° C.
[11] = 0.1M NH4OAc buffer, pH = 7.0 for 5 day, 20° C.
[12] = 0.1M NH4OAc buffer, pH = 8.0 for 8 day, 20° C.
[13] = 0.1M NH4OAc buffer, pH = 9.0 for 8 day, 20° C.
[14] = 0.1M NH4OAc buffer, pH = 10.0 for 8 day, 20° C.
[15] = 10% MeCN in H2O at 70° C. for 5 day
[16] = 10% MeCN in H2O for 5 day, 20° C.

With `COc1cccc2c1C(=O)c1c(O)c3c(c(O)c1C2=O)C[C@@](O)(C(=O)CO)C[C@@H]3O[C@H]1CC(NC(=O)O[C@H]2/C=C/CCCCC2)[C@H](O)C(C)O1` (stereo partly shown) [Axial-TCO-1-Doxorubicin] as the compound, how does the “Doxorubicin release (%) from Axial-TCO-1-Doxorubicin without tetrazine” value ([1]; no tetrazine, 37° C., PBS (72 h), column PBS/MeCN (3/1)) read?
Its value is 0%.

And the “Doxorubicin release (%) from Axial-TCO-1-Doxorubicin without tetrazine” value ([2]; no tetrazine, serum (24 h))?
The value was 0%.

For `NC1/C=C/CCCCC1NC(=O)Oc1ccccc1` (stereo not shown), which half-life at 2.3 mM ([3]; in PBS buffer, 20° C.) is on record?
The half-life at 2.3 mM was 65 h.

For `N[C@H]1CC/C=C/CCC1NC(=O)Oc1ccccc1` (stereo partly shown), which half-life at 2.3 mM ([3]; 0.1M NH4OAc buffer, pH = 7.0, 20° C.) is on record?
Its half-life at 2.3 mM is 80 h.

And the half-life at 2.3 mM ([3]; 0.1M NH4OAc buffer, pH = 8.0, 20° C.)?
The half-life at 2.3 mM was 17 h.

What about the half-life at 2.3 mM ([3]; 0.1M NH4OAc buffer, pH = 9.0, 20° C.) of the same compound?
The half-life at 2.3 mM was 5.3 h.

And the “Stability of TCO: cyclization” value [3, 5]?
The value was 6.7%.

What about the “Stability of TCO: cyclization” value [3, 6] of the same compound?
The value was 1.9%.

What about the “Stability of TCO: cyclization” value [3, 7] of the same compound?
The value was 5.9%.

What about the “Stability of TCO: cyclization” value [3, 8] of the same compound?
Its value is 2.6%.

And the “Deprotection (%)” value [4, 5]?
The value was 98.8%.

And the “Deprotection (%)” value [4, 6]?
The value was 33.9%.

And the “Deprotection (%)” value [4, 7]?
Its value is 24.4%.

What about the “Deprotection (%)” value [4, 8] of the same compound?
The value was 71.7%.

For `NC1CCCC/C=C/C1NC(=O)Oc1ccccc1` (stereo not shown), which half-life at 2.3 mM ([3]; in PBS buffer, 20° C.) is on record?
The half-life at 2.3 mM was 29 h.

Which “Doxorubicin release (%) from Axial-TCO-1-Doxorubicin” value ([1]; 10 equiv. tetrazine, 25% MeCN in PBS (PBS/MeCN 3/1), 37° C., LCMS at 4 h, n = 3) does the source give for `Cc1nnc(C)nn1` [tetrazine 8, 3,6-dimethyl-1,2,4,5-tetrazine] here?
The value was 79 ± 3%.

What about the “release of doxorubicin from TCO-1-doxorubucin, comparison of tetrazines 1, 8, 9” value ([1]; PBS/ACN and serum) of the same compound?
The value was “highest release”.

What about the “Doxorubicin release (%) from Axial-TCO-1-Doxorubicin” value ([2]; 10 equiv. tetrazine, 50% serum, LCMS at 4 h, n = 3) of the same compound?
Its value is 75 ± 4%.

Which results are given for `COc1cc(COC(=O)NC2CC/C=C/CC[C@@H]2N)cc(OC)c1OC` (stereo partly shown)?
Stability of TCO [3, 9]: stable; Stability of TCO: cyclization [3, 10]: < 5%; Stability of TCO [3, 11]: stable; Stability of TCO [3, 12]: stable; Stability of TCO [3, 13]: stable; Stability of TCO [3, 14]: stable; Stability of TCO: cyclization [3, 15]: <5%; Stability of TCO [3, 16]: stable; Deprotection (%) [4, 9]: 0%; Deprotection (%) [4, 10]: 87%; Deprotection (%) [4, 11]: 0%; Deprotection (%) [4, 12]: 0%; Deprotection (%) [4, 13]: 25%; Deprotection (%) [4, 14]: 81%; Deprotection (%) [4, 15]: 50%; Deprotection (%) [4, 16]: 0%
